PubChem BioAssay AID330 (DTP/NCI, 2004)
Several values for one entry are separate records, joined by “and”; a condition that tells them apart may be missing. Equal values may be shown once. Toxic doses and inconclusive results are not listed.

Test system: P388 leukemia ip, CD2F1 mice, survival T/C
Assay: NCI In Vivo Anticancer Drug Screen. Data for tumor model P388 Leukemia (intraperitoneal) in CD2F1 (CDF1) mice
Details: endpoint: median survival time, higher = longer survival
Method in brief: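 Mice carrying the transplanted tumor received test compound or vehicle. Survival was recorded in each group, and the value is the treated-group measurement divided by that of the vehicle-treated control group.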

[1] = dose: 50.0 mg/kg/injection, schedule: Q01DX009 (ip), vehicle: saline with Tween-80
[2] = dose: 100.0 mg/kg/injection, schedule: Q01DX009 (ip), vehicle: saline with Tween-80
[3] = dose: 200.0 mg/kg/injection, schedule: Q01DX009 (ip), vehicle: saline with Tween-80
[4] = dose: 50.0 mg/kg/injection, schedule: Q01DX005 (ip), vehicle: Klucel (hydroxypropylcellulose) (HPC)
[5] = dose: 100.0 mg/kg/injection, schedule: Q01DX005 (ip), vehicle: Klucel (hydroxypropylcellulose) (HPC)
[6] = dose: 200.0 mg/kg/injection, schedule: Q01DX005 (ip), vehicle: Klucel (hydroxypropylcellulose) (HPC)
[7] = dose: 60.0 mg/kg/injection, schedule: Q01DX005 (ip), vehicle: saline with Tween-80
[8] = dose: 120.0 mg/kg/injection, schedule: Q01DX005 (ip), vehicle: saline with Tween-80
[9] = dose: 240.0 mg/kg/injection, schedule: Q01DX005 (ip), vehicle: saline with Tween-80
[10] = dose: 400.0 mg/kg/injection, schedule: Q01DX009 (ip), vehicle: saline with Tween-80
[11] = dose: 12.5 mg/kg/injection, schedule: Q01DX009 (ip), vehicle: Klucel (hydroxypropylcellulose) (HPC)
[12] = dose: 25.0 mg/kg/injection, schedule: Q01DX009 (ip), vehicle: Klucel (hydroxypropylcellulose) (HPC)
[13] = dose: 50.0 mg/kg/injection, schedule: Q01DX009 (ip), vehicle: Klucel (hydroxypropylcellulose) (HPC)
[14] = dose: 50.0 mg/kg/injection, schedule: Q01DX009 (ip), vehicle: saline
[15] = dose: 100.0 mg/kg/injection, schedule: Q01DX009 (ip), vehicle: Klucel (hydroxypropylcellulose) (HPC)
[16] = dose: 100.0 mg/kg/injection, schedule: Q04DX003 (ip), vehicle: saline
[17] = dose: 200.0 mg/kg/injection, schedule: Q04DX003 (ip), vehicle: saline
[18] = dose: 400.0 mg/kg/injection, schedule: Q04DX003 (ip), vehicle: saline

CCCCN(CCCC)CC(O)c1cc2c(Cl)cc(Cl)cc2c2cc(C(F)(F)F)ccc12 (stereo unspecified)
T/C [1]: 97 % of control
T/C [2]: 100 % of control
T/C [3]: 100 % of control

CC(=O)NCC#N
T/C (dose: 100.0 mg/kg/injection, schedule: Q01DX001 (ip), vehicle: saline): 107 % of control
T/C (dose: 200.0 mg/kg/injection, schedule: Q01DX001 (ip), vehicle: saline): 102 % of control
T/C (dose: 400.0 mg/kg/injection, schedule: Q01DX001 (ip), vehicle: saline): 121 % of control

COC(=O)C12CCCC1(C(=O)OC)N2N1C(=O)c2ccccc2C1=O (stereo unspecified)
T/C [4]: 100 % of control
T/C [5]: 100 % of control
T/C [6]: 105 % of control

CCCC(O)C(NC(=O)c1ccccc1)C(=O)O (stereo unspecified)
T/C [1]: 92 % of control
T/C [2]: 98 % of control and 95 % of control
T/C [3]: 95 % of control and 98 % of control

COC(=O)c1nnn(-c2ccc(C)c(C)c2)c1N
T/C [7]: 90 % of control
T/C [8]: 93 % of control
T/C [9]: 94 % of control

Cc1ccc(NC(=S)NCCc2ccccn2)cc1C
T/C (dose: 12.5 mg/kg/injection, schedule: Q01DX009 (ip), vehicle: saline with Tween-80): 94 % of control
T/C (dose: 25.0 mg/kg/injection, schedule: Q01DX009 (ip), vehicle: saline with Tween-80): 94 % of control
T/C [1]: 93 % of control
T/C [2]: 99 % of control and 92 % of control
T/C [3]: 100 % of control
T/C [10]: 105 % of control

Cc1cc([N+](=O)[O-])ccc1NC(=O)OC(C)C
T/C [7]: 99 % of control
T/C [8]: 111 % of control
T/C [9]: 99 % of control

O=C1C(C(=Nc2cccc(Cl)c2)c2ccccc2)=C(O)c2ccccc21
T/C (dose: 25.0 mg/kg/injection, schedule: Q04DX002 (ip), vehicle: saline with Tween-80): 93 % of control
T/C (dose: 50.0 mg/kg/injection, schedule: Q04DX002 (ip), vehicle: saline with Tween-80): 95 % of control

CC(=O)OCC(OC(C)=O)C(OC(C)=O)C(OC1OC(COC(C)=O)C(OC(C)=O)C(OC(C)=O)C1OC(C)=O)C(COC(C)=O)OC(C)=O (stereo unspecified)
T/C (dose: 50.0 mg/kg/injection, schedule: Q01DX005 (ip), vehicle: suspension in saline): 97 % of control
T/C (dose: 100.0 mg/kg/injection, schedule: Q01DX005 (ip), vehicle: suspension in saline): 91 % of control
T/C (dose: 200.0 mg/kg/injection, schedule: Q01DX005 (ip), vehicle: suspension in saline): 99 % of control

COc1cccc(CSC(=N)N)c1
T/C [11]: 109 % of control
T/C [12]: 99 % of control
T/C [13]: 100 % of control and 110 % of control

CC(=O)O[C@H]1CC[C@H]2[C@@H]3CCC(=O)CC(=O)CCC(=O)[C@H]3CC[C@]12C
T/C [4]: 108 % of control
T/C [5]: 109 % of control
T/C [6]: 105 % of control

CC1(C)CCCc2c(-c3ccccc3)cc3c4[nH]c5ccccc5c4cc[n+]3c21
T/C [1]: 99 % of control
T/C [2]: 99 % of control
T/C [3]: 101 % of control

CCCS(=O)(=O)Nc1ccc(Nc2c3ccccc3nc3ccccc23)c(OC)c1
T/C (dose: 6.25 mg/kg/injection, schedule: Q01DX009 (ip), vehicle: saline): 118 % of control
T/C (dose: 25.0 mg/kg/injection, schedule: Q01DX009 (ip), vehicle: saline): 150 % of control and 160 % of control
T/C [14]: 150 % of control

CN1CCN(c2ccncc2S(=O)(=O)N2CCCC2)CC1
T/C [14]: 107 % of control
T/C (dose: 100.0 mg/kg/injection, schedule: Q01DX009 (ip), vehicle: saline): 104 % of control

C=C(C)C1C/C=C2/C(=O)OC(CC3(C)CC(=O)C(CC(=O)C1)O3)C2O (stereo unspecified)
T/C (dose: 4.0 mg/kg/injection, schedule: Q01DX009 (ip), vehicle: Klucel (hydroxypropylcellulose) (HPC)): 101 % of control
T/C (dose: 8.0 mg/kg/injection, schedule: Q01DX009 (ip), vehicle: Klucel (hydroxypropylcellulose) (HPC)): 101 % of control
T/C (dose: 16.0 mg/kg/injection, schedule: Q01DX009 (ip), vehicle: Klucel (hydroxypropylcellulose) (HPC)): 104 % of control
T/C (dose: 32.0 mg/kg/injection, schedule: Q01DX009 (ip), vehicle: Klucel (hydroxypropylcellulose) (HPC)): 101 % of control

S=C(Nc1ccc(Br)c(Cl)c1)SCc1ccc2c(c1)OCO2
T/C [12]: 121 % of control
T/C [13]: 107 % of control
T/C (dose: 50.0 mg/kg/injection, schedule: Q01DX009 (ip), vehicle: suspension in saline): 105 % of control
T/C [15]: 123 % of control
T/C (dose: 100.0 mg/kg/injection, schedule: Q01DX009 (ip), vehicle: suspension in saline): 104 % of control
T/C (dose: 200.0 mg/kg/injection, schedule: Q01DX009 (ip), vehicle: suspension in saline): 116 % of control

CCOC(=O)/C=C1\CCC(C)n2c1nccc2=O (stereo unspecified)
T/C [7]: 97 % of control
T/C [8]: 101 % of control
T/C [9]: 98 % of control

CC1(C)OC(COCCOCCOCCCC#N)C(COCCOCCOCCCC#N)O1 (stereo unspecified)
T/C (dose: 25.0 mg/kg/injection, schedule: Q01DX005 (ip), vehicle: saline): 100 % of control
T/C (dose: 50.0 mg/kg/injection, schedule: Q01DX005 (ip), vehicle: saline): 103 % of control
T/C (dose: 100.0 mg/kg/injection, schedule: Q01DX005 (ip), vehicle: saline): 107 % of control
T/C (dose: 200.0 mg/kg/injection, schedule: Q01DX005 (ip), vehicle: saline): 98 % of control

CSc1nc(N)c(-c2ccc([N+](=O)[O-])cc2)s1
T/C [7]: 97 % of control
T/C [8]: 97 % of control
T/C [9]: 97 % of control

O=[N+]([O-])c1ccc2nc3ccccc3cc2c1
T/C (dose: 50.0 mg/kg/injection, schedule: Q04DX003 (ip), vehicle: saline): 112 % of control
T/C [16]: 96 % of control
T/C [17]: 96 % of control
T/C [18]: 93 % of control

COC(=O)c1nc(N)nc(C(=O)OC)c1C(=O)c1cccc2ccccc12
T/C (dose: 60.0 mg/kg/injection, schedule: Q01DX005 (ip), vehicle: Klucel (hydroxypropylcellulose) (HPC)): 99 % of control
T/C (dose: 120.0 mg/kg/injection, schedule: Q01DX005 (ip), vehicle: Klucel (hydroxypropylcellulose) (HPC)): 100 % of control

C=C1C(=O)OC2/C=C(\C)CC/C=C(/C=O)C(OC)C(OC(=O)C(C)C)C12 (stereo unspecified)
T/C (dose: 6.25 mg/kg/injection, schedule: Q01DX009 (ip), vehicle: Klucel (hydroxypropylcellulose) (HPC)): 106 % of control
T/C [11]: 97 % of control
T/C [12]: 100 % of control

O=S(=O)(OC1=CCCCC1)C(F)(F)F
T/C [1]: 100 % of control
T/C [2]: 109 % of control
T/C [3]: 112 % of control
T/C [10]: 115 % of control

COC(=O)/C=C(\C)Oc1c(Cl)c(Cl)c(Cl)c(Cl)c1Cl
T/C (dose: 50.0 mg/kg/injection, schedule: Q04DX003 (ip), vehicle: saline sonified): 110 % of control
T/C [2]: 91 % of control
T/C (dose: 100.0 mg/kg/injection, schedule: Q04DX003 (ip), vehicle: saline sonified): 110 % of control
T/C [3]: 100 % of control
T/C (dose: 200.0 mg/kg/injection, schedule: Q04DX003 (ip), vehicle: saline sonified): 110 % of control
T/C [10]: 91 % of control

Cc1ccc(C)c(NC(=O)Nc2ccccc2C(N)=O)c1
T/C [13]: 91 % of control
T/C [15]: 113 % of control
T/C (dose: 200.0 mg/kg/injection, schedule: Q01DX009 (ip), vehicle: Klucel (hydroxypropylcellulose) (HPC)): 104 % of control

Cc1cccc(C(=O)O)n1
T/C [16]: 104 % of control
T/C [17]: 100 % of control
T/C [18]: 109 % of control

COC1=CC23CC(CC(c4cc(OC)c(OC)c(OC)c4)C2C)OC3=CC1=O (stereo unspecified)
T/C (dose: 4.38 mg/kg/injection, schedule: Q01DX005 (ip), vehicle: Klucel (hydroxypropylcellulose) (HPC)): 96 % of control
T/C (dose: 8.75 mg/kg/injection, schedule: Q01DX005 (ip), vehicle: Klucel (hydroxypropylcellulose) (HPC)): 102 % of control
T/C (dose: 17.5 mg/kg/injection, schedule: Q01DX005 (ip), vehicle: Klucel (hydroxypropylcellulose) (HPC)): 106 % of control

OC(/C=C/c1ccccc1)Cc1nc2ccccc2[nH]1 (stereo unspecified)
T/C [7]: 98 % of control
T/C [8]: 88 % of control

CCc1nc(N)nc(N)c1-c1ccc(OC)c(N)c1
T/C (dose: 50.0 mg/kg/injection, schedule: Q01DX005 (ip), vehicle: saline with Tween-80): 102 % of control and 116 % of control
T/C (dose: 100.0 mg/kg/injection, schedule: Q01DX005 (ip), vehicle: saline with Tween-80): 112 % of control
T/C (dose: 200.0 mg/kg/injection, schedule: Q01DX005 (ip), vehicle: saline with Tween-80): 119 % of control
